Assay results reported in PMC11391413 (Chemical Science, 2024).
No end group written: not given here.

Experiments:
[1] = target: NSH3 domain of full-length GRB2 (Homo sapiens, UniProt P62993); assay: NMR titration (1H-15N HSQC chemical shift perturbation) of 15N-labelled full-length GRB2 with SOS1 PRMs, KD1; conditions: read-out: K D (μM) from full-length GRB2, K D1 (NSH3), global fit of residues with maximum CSPs over 0.03 ppm, independent two-site binding model, GRB2 approx. 200 to 270 μM, 20 mM sodium phosphate, 25 °C, bootstrap 1000 iterations
Experimental: Models with two binding sites basically require a total of four dissociation constants (KD1–KD4). The two-site independent binding model equates KD3 and KD4 with KD2 and KD1, respectively. In contrast, the two-site cooperative binding model (two-site dependent model) differentiates the four dissociation constants, with the assumption that KD3 is modulated by another ligand binding to KD2, as a function of KD2 and a modulation factor α. KD4 is then calculated from KD1 and KD2, as shown in the equation provided in the figure (the detailed models and theory are described in Materials and methods). […] The calculations were performed using only residues showing the maximum CSPs over 0.03 ppm.
2D ^1H–^15N HSQC spectra were measured at each titration point. Chemical shift differences, Δ, were analysed by Δ = ((ΔH)^2 + (ΔN/5)^2)^1/2, where ΔH and ΔN are the differences in ppm for the backbone amide ^1H and ^15N chemical shifts between the two conditions. 1 ppm corresponds to 600.13 Hz for ^1H and 60.81 Hz for ^15N.
The dissociation constants for each residue were calculated by non-linear regression analysis with the equation for the single state model:[33] […]
In all models, the non-linear least-squares fitting was performed by the Levenberg–Marquardt algorithm. The precision of the model parameters was assessed by conducting the bootstrap resampling on the residuals of the regression model. […]

[2] = target: T1, full-length GRB2, KD1 (NSH3) (Homo sapiens, UniProt P62993); assay: ITC of full-length GRB2 with SOS1 PRMs, KD1; format: binding
T1 construct: further corroborated by our ITC analysis of the full-length GRB2; His6 (N, cleaved yes); TEV protease cleavage site (N, cleaved yes); made in house; host or cells: Escherichia coli BL21 (DE3) pLysS
Experimental: The calculations were performed using only residues showing the maximum CSPs over 0.03 ppm. […] Based on the assumption of non-interference between the two binding sites from the NMR titration experiments, we also employed a two-site independent model in the ITC analysis, referred to as the ‘Two Set of Sites’ model in MicroCal ITC-ORIGIN Analysis Software (Malvern Panalytical).
The ITC experiments were carried out at 25 °C on a MicroCal Auto-iTC 200 instrument (Malvern Panalytical) with the following experimental parameters: 20 injections per experiment; 2 μL injection volume, except that the first injection of 0.4 μL to be discarded at the analysis; 150 s waiting period between the injections; stirring at 750 rpm; 5 μcal s^−1 reference power. […] Each binding experiment was accompanied by a corresponding reference experiment exclusively with the sodium phosphate buffer and ultrapure water. Each parameter was determined by analyzing row ITC data with the model, Two Set of Sites, using MicroCal ITC-ORIGIN Analysis Software (Malvern Panalytical).

Row | Compound | Kd [1] [µM] | Kd [2] [µM]
1 | CC(C)C[C@H](NC(=O)[C@H](CCCCN)NC(=O)[C@@H]1CCCN1)C(=O)N1CCC[C@H]1C(=O)N1CCC[C@H]1C(=O)N[C@@H](CCCCN)C(=O)N[C@H](C(=O)N[C@@H](Cc1ccc(O)cc1)C(=O)N[C@@H](CCCCN)C(=O)N[C@@H](CCCNC(=N)N)C(=O)N[C@@H](CCC(=O)O)C(=O)N[C@@H](Cc1c[nH]cn1)C(=O)O)[C@@H](C)O [S10] | 483 ± 45.7 | 71.5 ± 24.2
2 | PKPLPRFPKK [S2] |  | 65.1 ± 23.7
3 | PSPHGTRRHLPSPP [S8] |  | 123 ± 18.6

The next compounds have a lower Kd [2] than those just listed; values first:

Row | Kd [1] [µM] | Kd [2] [µM] | Compound
4 |  | 40.1 ± 6.5 | ESPPLLPPREPV [S6]
5 |  | 35.6 ± 4.2 | IAGPPVPPRQST [S9]
6 |  | 15.9 ± 1.5 | DSPPAIPPRQPT [S5]
